In patent US8420657B2 (Novartis AG, priority 2008, dated 2013):
Like-named read-outs stand apart in the source and are kept apart here.

What was measured:
Assay type in all cases: biochemical
[1] = target: T1, GST-JAK2(808-1132) (Homo sapiens, UniProt O60674); experiment: JAK2 kinase assay (Caliper mobility shift, LabChip 3000)
T1 construct: GST-JAK2(808-1132); purchased Invitrogen (Carlsbad, USA) #4288
Outline: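 Recombinant GST-JAK2(808-1132) kinase domain with FITC-labelled JAK3tide peptide substrate and ATP; 60 min at 30 °C, EDTA stop. Substrate/product ratio read by microfluidic mobility shift; compounds at 8 final concentrations, 10 to 0.003 μM.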

[2] = target: T2, cMet (Homo sapiens, UniProt P08581); experiment: cMet LanthaScreen TR-FRET kinase phosphorylation assay; conditions: recombinant kinase domain
T2 construct: using the recombinant domains of cMet, cKit, ALK and PDGFRalpha kinases
T2 sequence (P08581 1078-1345 limits assumed): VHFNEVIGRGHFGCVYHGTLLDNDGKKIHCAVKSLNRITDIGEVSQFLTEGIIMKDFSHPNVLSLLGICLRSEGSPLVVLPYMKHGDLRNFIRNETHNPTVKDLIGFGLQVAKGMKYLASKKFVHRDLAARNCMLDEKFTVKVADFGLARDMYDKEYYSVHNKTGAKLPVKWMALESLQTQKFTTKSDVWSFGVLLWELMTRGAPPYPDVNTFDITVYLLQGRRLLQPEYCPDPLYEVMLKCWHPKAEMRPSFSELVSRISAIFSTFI
Procedure: (§1) The compounds are assayed in an antibody based kinase phosphorylation assay using the recombinant domains of cMet, cKit, ALK and PDGFRalpha kinases and a generic phospho-tyrosine peptide substrate. LanthaScreen™ is the detection of Time-Resolved Fluorescence Resonance Energy Transfer (TR-FRET) using lanthanide chelates to measure interactions between various binding partners. In a TR-FRET kinase assay, a long-lifetime lanthanide donor species is conjugated to an antibody that specifically binds to a phosphorylated product of a kinase reaction that is labeled with a suitable acceptor fluorophore. This antibody-mediated interaction brings the lanthanide donor and the acceptor into proximity such that resonance energy transfer can take place, resulting in a detectible increase in FRET. The LanthaScreen is run at ambient temperature and terminated by the addition of stop solution, followed by Tb-labeled P-20 antibody. After incubating in the dark, the plates are transferred to a fluorescence reader for counting. The effect of compound on the enzymatic activity is in all assays obtained from the linear progress curves and determined from one reading (end point measurement).

[3] = target: T3, cKit (Homo sapiens, UniProt P10721); experiment: cKit LanthaScreen TR-FRET kinase phosphorylation assay; conditions: recombinant kinase domain
T3 construct: using the recombinant domains of cMet, cKit, ALK and PDGFRalpha kinases
T3 sequence (P10721 589-937 limits assumed): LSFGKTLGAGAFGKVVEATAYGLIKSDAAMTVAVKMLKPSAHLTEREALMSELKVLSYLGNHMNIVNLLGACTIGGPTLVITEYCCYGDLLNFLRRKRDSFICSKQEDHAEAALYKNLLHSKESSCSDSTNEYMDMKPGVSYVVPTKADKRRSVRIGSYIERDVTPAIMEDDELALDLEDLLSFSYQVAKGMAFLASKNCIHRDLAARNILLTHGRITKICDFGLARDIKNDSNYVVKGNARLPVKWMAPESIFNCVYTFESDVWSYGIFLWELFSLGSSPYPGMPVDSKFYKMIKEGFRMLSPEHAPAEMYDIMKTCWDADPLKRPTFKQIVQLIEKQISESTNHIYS
Procedure: as §1

[4] = target: T4, ALK (Homo sapiens, UniProt Q9UM73); experiment: ALK LanthaScreen TR-FRET kinase phosphorylation assay; conditions: recombinant kinase domain
T4 construct: using the recombinant domains of cMet, cKit, ALK and PDGFRalpha kinases
T4 sequence (Q9UM73 1116-1392 limits assumed, species assumed): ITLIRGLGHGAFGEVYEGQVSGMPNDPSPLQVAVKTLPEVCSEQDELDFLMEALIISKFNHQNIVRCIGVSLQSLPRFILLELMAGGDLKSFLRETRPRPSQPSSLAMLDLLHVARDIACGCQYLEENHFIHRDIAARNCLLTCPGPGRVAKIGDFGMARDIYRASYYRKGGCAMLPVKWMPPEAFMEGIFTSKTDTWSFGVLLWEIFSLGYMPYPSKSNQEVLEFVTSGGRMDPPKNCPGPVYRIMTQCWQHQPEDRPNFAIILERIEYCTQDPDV
Procedure: as §1

[5] = target: T5, PDGFRalpha (Homo sapiens, UniProt P16234); experiment: PDGFRalpha LanthaScreen TR-FRET kinase phosphorylation assay; conditions: recombinant kinase domain, read-out: PDGFRa/IC50
T5 construct: using the recombinant domains of cMet, cKit, ALK and PDGFRalpha kinases
T5 sequence (P16234 593-954 limits assumed, species assumed): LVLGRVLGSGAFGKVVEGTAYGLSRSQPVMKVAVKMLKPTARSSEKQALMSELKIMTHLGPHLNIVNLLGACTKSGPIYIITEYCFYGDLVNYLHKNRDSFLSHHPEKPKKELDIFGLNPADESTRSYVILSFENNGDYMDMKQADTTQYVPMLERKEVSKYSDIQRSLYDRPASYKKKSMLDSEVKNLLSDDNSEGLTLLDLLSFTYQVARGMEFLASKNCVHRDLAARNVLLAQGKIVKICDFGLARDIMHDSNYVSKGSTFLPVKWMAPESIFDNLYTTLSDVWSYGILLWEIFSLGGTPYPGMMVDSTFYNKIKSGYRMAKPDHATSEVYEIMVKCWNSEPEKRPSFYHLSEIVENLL
Procedure: as §1

T1 sequence (O60674 808-1132): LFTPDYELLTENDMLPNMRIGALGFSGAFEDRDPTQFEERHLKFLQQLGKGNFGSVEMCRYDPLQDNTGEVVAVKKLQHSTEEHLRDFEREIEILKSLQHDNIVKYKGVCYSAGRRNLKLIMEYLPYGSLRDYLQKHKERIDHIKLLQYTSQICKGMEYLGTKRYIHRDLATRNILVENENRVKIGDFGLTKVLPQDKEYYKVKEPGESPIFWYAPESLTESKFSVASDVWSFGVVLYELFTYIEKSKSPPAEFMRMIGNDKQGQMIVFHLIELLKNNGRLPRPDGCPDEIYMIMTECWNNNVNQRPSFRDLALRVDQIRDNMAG

| SMILES | IC50 [1] | IC50 ([1]; Table 3) | IC50 [2] | IC50 [3] | IC50 [4] | IC50 [5] |
| --- | --- | --- | --- | --- | --- | --- |
| Cc1ccc(Nc2ncc3ccn(-c4ccc(C(=O)N5CCOCC5)cc4)c3n2)cn1 [Example 238, {4-[2-(6-Methyl-pyridin-3-ylamino)-pyrrolo[2,3-d]pyrimidin-7-yl]-phenyl}-morpholin-4-yl-methanone] | 0.0111 µM | 0.0111 µM | 8.2 µM | > 10 µM | > 10 µM | 6.6 µM |
| CC1(C)NCCN(c2cc(Nc3ncc4ccn(-c5cc(F)c(CN6CCOCC6)c(F)c5)c4n3)ccn2)C1=O [Example 503, 1-{4-[7-(3,5-Difluoro-4-morpholin-4-ylmethyl-phenyl)-7H-pyrrolo[2,3-d]pyrimidin-2-ylamino]-pyridin-2-yl}-3,3-dimethyl-piperazin-2-one] | ≤ 0.003 µM | < 0.003 µM | 6.1 µM | 9.5 µM | > 10 µM | > 10 µM |
| COCc1ccc(Nc2ncc3ccn(-c4cc(F)c(CN5CCS(=O)(=O)CC5)c(F)c4)c3n2)cc1 [Example 184, {7-[4-(1,1-Dioxido-thiomorpholin-4-ylmethyl)-3,5-difluoro-phenyl]-7H-pyrrolo[2,3-d]pyrimidin-2-yl}-(4-methoxymethyl-phenyl)-amine] | < 0.003 µM | < 0.003 µM | > 10 µM | > 10 µM | > 10 µM | > 10 µM |
| Cc1ccc(Nc2ncc3ccn(-c4cc(F)c(CN5CCNC(=O)C5)c(F)c4)c3n2)cc1CN1CCNCC1 [Example 382, 4-{2,6-Difluoro-4-[2-(4-methyl-3-piperazin-1-ylmethyl-phenylamino)-pyrrolo[2,3-d]pyrimidin-7-yl]-benzyl}-piperazin-2-one] | 0.0035 µM | 0.0035 µM | 2.4 µM | 1.1 µM | > 10 µM | 7.7 µM |
| COc1cc(Nc2ncc3ccn(-c4ccc(C(=O)N5CCOCC5)c(F)c4)c3n2)ccc1F [Example 151, {2-Fluoro-4-[2-(4-fluoro-3-methoxy-phenylamino)-pyrrolo[2,3-d]pyrimidin-7-yl]-phenyl}-morpholin-4-yl-methanone] | 0.0057 µM | 0.0057 µM | > 10 µM | > 10 µM | > 10 µM | > 10 µM |
| COCc1c(F)cc(-n2ccc3cnc(Nc4ccc(N5CCN(C)CC5)nc4)nc32)cc1F [Example 446, [7-(3,5-Difluoro-4-methoxymethyl-phenyl)-7H-pyrrolo[2,3-d]pyrimidin-2-yl]-[6-(4-methyl-piperazin-1-yl)-pyridin-3-yl]-amine] | 0.0043 µM | 0.0043 µM | 6 µM | 2.65 µM | > 10 µM | 7.45 µM |
| Cc1ccc(Nc2ncc3ccn(-c4ccc(C(=O)N5CCN(CCO)CC5)cc4)c3n2)cc1C [Example 300, {4-[2-(3,4-Dimethyl-phenylamino)-pyrrolo[2,3-d]pyrimidin-7-yl]-phenyl}-[4-(2-hydroxy-ethyl)-piperazin-1-yl]-methanone] | 0.0175 µM | 0.0175 µM | > 10 µM | 3.4 µM | > 10 µM | 7.7 µM |
| CC(C)Oc1ccc(Nc2ncc3ccn(-c4ccc(C#N)cc4)c3n2)cc1 [Example 96, 4-[2-(4-Isopropoxy-phenylamino)-pyrrolo[2,3-d]pyrimidin-7-yl]-benzonitrile] | 0.0485 µM | 0.0485 µM | > 10 µM | > 10 µM | > 10 µM | > 10 µM |
| Fc1cc(-n2ccc3cnc(Nc4ccnc(CN5CCNCC5)c4)nc32)cc(F)c1CN1CCOCC1 [Example 372, [7-(3,5-Difluoro-4-morpholin-4-ylmethyl-phenyl)-7H-pyrrolo[2,3-d]pyrimidin-2-yl]-(2-piperazin-1-ylmethyl-pyridin-4-yl)-amine] | 0.0047 µM | 0.0047 µM | > 10 µM | 5.7 µM | > 10 µM | > 10 µM |
| Cn1cc(Nc2ncc3ccn(-c4ccc(CC(=O)N5CCOCC5)cc4)c3n2)cn1 [Example 301, 2-{4-[2-(1-Methyl-1H-pyrazol-4-ylamino)-pyrrolo[2,3-d]pyrimidin-7-yl]-phenyl}-1-morpholin-4-yl-ethanone] | < 0.003 µM | < 0.003 µM | 3.6 µM | 4.75 µM | > 10 µM | 5.6 µM |
| Cc1cc(Nc2ncc3ccn(-c4ccc(C(=O)N5CCOCC5)c(F)c4)c3n2)nn1C [Example 311, {4-[2-(1,5-Dimethyl-1H-pyrazol-3-ylamino)-pyrrolo[2,3-d]pyrimidin-7-yl]-2-fluoro-phenyl}-morpholin-4-yl-methanone] | 0.031 µM | 0.031 µM | > 10 µM | > 10 µM | > 10 µM | > 10 µM |
| Cc1ccc(Nc2ncc3ccn(-c4cc(F)c(CN5CCOCC5)c(F)c4)c3n2)cc1CN1CCNCC1 [Example 332, [7-(3,5-Difluoro-4-morpholin-4-ylmethyl-phenyl)-7H-pyrrolo[2,3-d]pyrimidin-2-yl]-(4-methyl-3-piperazin-1-ylmethyl-phenyl)-amine] | ≤ 0.003 µM | – | 7.57 µM | 1.55 µM | 9.05 µM | 6.7 µM |
| C[C@@H]1CN(c2ccc(Nc3ncc4ccn(-c5ccc(NS(C)(=O)=O)cc5)c4n3)cn2)C[C@H](C)N1 [Example 380, N-(4-{2-[6-(cis-3,5-Dimethyl-piperazin-1-yl)-pyridin-3-ylamino]-pyrrolo[2,3-d]pyrimidin-7-yl}-phenyl)-methanesulfonamide] | 0.0032 µM | 0.0032 µM | 5.4 µM | 1.7 µM | > 10 µM | 5.3 µM |
| CN1CCN(c2ccc(Nc3ncc4ccn(-c5cc(F)c(CN6CCS(=O)(=O)CC6)c(F)c5)c4n3)nc2)CC1 [Example 440, {7-[4-(1,1-Dioxido-thiomorpholin-4-ylmethyl)-3,5-difluoro-phenyl]-7H-pyrrolo[2,3-d]pyrimidin-2-yl}-[5-(4-methyl-piperazin-1-yl)-pyridin-2-yl]-amine] | 0.0032 µM | 0.0032 µM | > 10 µM | > 10 µM | > 10 µM | > 10 µM |
| CN1CCN(C(=O)c2cccc(Nc3ncc4ccn(-c5cc(F)c(CN6CCOCC6)c(F)c5)c4n3)c2)CC1 [Example 203, {3-[7-(3,5-Difluoro-4-morpholin-4-ylmethyl-phenyl)-7H-pyrrolo[2,3-d]pyrimidin-2-ylamino]-phenyl}-(4-methyl-piperazin-1-yl)-methanone] | 0.0074 µM | 0.0064 µM | 6.9 µM | 4.7 µM | > 10 µM | > 10 µM |
